Each structure is given as a SMILES string.

Data set [1] deals with MV4-11. Briefly: Cell cycle arrest in human MV4-11 cells assessed as accumulation at sub-G1 phase at 0.04 uM after 24 hrs by propidium iodide staining based flow cytometry (reference value: 1.99%). Type of data set: functional. For orientation: A flow cytometer gives signals particle by particle.
In another data set the test system is Mus musculus. Nature of the data set: Toxicity in nude BALB/c mouse assessed as body weight loss at 20 to 100 mg/kg, po qd measured up to 14 days post dose. The following applies: in vivo, 336 h. The data set is classed as organism-based.
The subject of data set [2] is MV4-11. Nature of the data set: Antitumor activity against human MV4-11 cells xenografted in nude BALB/c mouse assessed as tumor growth inhibition at 100 mg/kg, po qd administered for 33 consecutive days measured post last dose. The following applies: MV4-11, po, read-out: TGI. Type of data set: functional. (Xenograft models place foreign cells or tissue in a host animal.)

Consider `CC(=O)c1c(C)c2cnc(Nc3ccc(N4CCNCC4)cn3)nc2n(C2CCCC2)c1=O` [PALBOCICLIB], for which, in the data set with MV4-11 [1], the Activity turned out to be 2.66%.

Regarding `Cc1nc(NC2CCCC2)sc1-c1ccnc(Nc2ccc(N3CCOCC3)cn2)n1`, in the data set on Mus musculus, the Activity entry was “Non-Toxic”. Further, the inhibition in vivo at 100 mg/kg with MV4-11 [2] is 76%.

(Values after ChEMBL document CHEMBL4004830 (J Med Chem, 2017).)
